Test results taken from US7423068B2, “Control of parasitic mites of honey bees” (The United States of America as represented by the …, priority 2001, dated 2008).
Several values for one entry are separate records, joined by “and”; a condition that tells them apart may be missing. Equal entries are not always repeated.

Assays:
[1] = system: Varroa mite; assay: Miticidal activity in 5-frame honey bee colonies (sticky board counts); type: in vivo, Varroa jacobsoni
Procedure: This set of bioassays was conducted in 5-frame colonies. We tested miticidal activity of 30% concentration 2-heptanone in an acrylic block dispenser. Four colonies were established for each of the following treatments: 2-heptanone, Apistan® (a commercially available miticide for control of Varroa), and no treatment (i.e., Controls). Before each treatment, counts were made of the number of mites that dropped on to Dewill® Varroa Mite Detector Inserts (hereinafter denoted as “sticky boards”) placed at the bottom of colonies for one week (pre-treatment counts). A new sticky board then was inserted at the bottom of each colony, and either a single acrylic block dispenser with 30% 2-heptanone made as in Example 6 (surface area=28.3 cm^2) or a single Apistan® strip was placed between the frames. The Controls comprised no treatment. The number of mites on the sticky boards was counted weekly for 3-4 weeks afterwards (treatment interval). New sticky boards were inserted at the beginning of each week. At the end of the test period, the 2-heptanone and Apistan® were removed, and a new sticky board was inserted on the bottom of the colonies. A new Apistan® strip then was placed in the colonies to kill any remaining mites (post-treatment interval). The number of mites on the sticky board was counted after the colony was exposed to the new Apistan® strip for one week. The % Reduction in the Varroa Population was estimated by summing all the mites counted on the sticky board during the 3 or 4 week treatment interval and dividing it by the total number of mites counted for the colony during both the treatment and post-treatment intervals.
When we removed the acrylic strips from the colony after three weeks, we could still detect the odor of 2-heptanone. We repeated the test with new colonies, and in this trial (Trial-2) left the 2-heptanone and Apistan® strips in the colony for 4 weeks. We then placed the post-treatment Apistan® strips in the colonies.
This test (Trial 3) was carried out in 5-frame colonies as described above except for the following changes. […]

[2] = system: free-running adult mites
Procedure: 2-Heptanone was tested for miticidal activity in two separate sets of bioassays. In the petri dish bioassays we exposed free-running adult mites to volatiles from 2-heptanone either in pure form or in an acrylic block dispenser (as described in a further experiment, below) and measured mortality over time. Mites were placed in petri dishes (5-10 mites/dish, 4 dishes per treatment and 4 dishes for controls) that were lined on the bottom with damp tissue paper covered with Parafilm®. Holes were punched in the Parafilm® using an insect pin to create a humid environment in the petri dish. A piece of filter paper the same size as the petri dish was placed on top of the Parafilm® sheet. In the first petri dish bioassay, 40 μl of pure 2-heptanone was placed on a piece of filter paper on the lid of the petri dish (treatment dishes). The Control dishes were set up as described above but nothing was added to the piece of filter paper fastened to the lid of the petri dish. The petri dishes were placed in separate incubators for treatments and Controls. Incubator temperatures were maintained at 33-34.4° C. […] In the second bioassay 0.1 g of a 30% concentration of 2-heptanone in acrylic block made as in Example 6 was placed in a plastic weighing boat in the center of petri dishes prepared as described above. Control petri dishes were prepared identically to those containing the acrylic block, but the weighing boat in the center of the dish was empty.
In another series of tests, 2-heptanone, 98+% (Sigrma-Aldrich); 3-heptanone (Fluka Chemika); 4-heptanone (Fluka Chemika); 2-hexanone; 2-octanone, 98% (Aldrich Chemical Co.); 1-heptanol (Fluka Chemika, 99.5% GC), and heptaldehyde, 95% (Aldrich Chemical Co.) were tested in petri dish bioassays wherein free-running adult mites were exposed to 40 μl of pure compound placed on filter paper as described above. The test conditions and Controls were as described above.
The test conditions and Controls were as described above.

[3] = system: mites; assay: Minimum Level Treatment Effectiveness petri dish bioassay; type: in vivo; settings: for # of Dead Mites/Total Mites: 17.5 hours exposure
Procedure: Determination of the minimum amount of 2-heptanone effective in mite mortality in our bioassay was performed according to the following procedure: 3 Kimwipes® were placed on the bottom of petri dishes and slightly moistened with water using a disposable 1 ml pipette. A cut section of Parafilm® M was placed over the moistened Kimwipes® and stretched up and over the outer edge of the petri dish bottom. […] A single Whatman® Filter paper (9.0 cm) was placed on top of the pierced Parafilm® area and pushed down to create space between the filter paper and the petri dish lid. Six to eight mites and two bee larvae were placed on top of the filter paper in each petri dish. A small strip of filter paper was taped to the inside top of each petri dish. Four groups of two petri dishes were labeled according to the type of treatment. The treatments were: 1 μL 2-heptanone; 5 μL 2-heptanone; 10 μL 2-heptanone; and Control (no treatment). All eight dishes were then placed in incubators set to maintain a temperature of 33-34.4° C. Our results were as follows:
In our second bioassay, the same protocol was applied; however we sought to investigate if lower amounts of 2-heptanone could be as effective. In this trial, amounts of 0.5 and 1 μL of 2-heptanone were used. After 17.5 hours exposure to 2-heptanone, our results were as follows: […]

SMILES: CCCCCC(C)=O [2-Heptanone]
- % Reduction in Varroa Mite Population ± S.E. ([1]; Trial 1, 3 week treatment, 30% 2-heptanone acrylic block or single Apistan strip, Control 42.2 ± 7.0): 61.8 ± 8.5 a %
- % Reduction in Varroa Mite Population ± S.E. ([1]; Trial 2, 4 week treatment, 30% 2-heptanone acrylic block or single Apistan strip, Control 43.6 ± 4.2): 73.6 ± 13.7 a %
- % Reduction in Varroa Mite Population ± S.E. ([1]; Trial 3, controlled release strip with 60 g 2-heptanone on top bar, renewed after 3 weeks, or Apistan strip, Control 69.35 ± 4.8): 87.05 ± 4.4 a %
- % of the mites dead ([2]; 0.1 g of 30% 2-heptanone in acrylic block, 4 hrs., controls 6%): 90%
- time until all the mites were dead ([2]; 40 μl pure 2-heptanone on filter paper, 33-34.4° C., controls 0% mortality): less than 2 hrs.
- # of Dead Mites/Total Mites ([3]; 0.5 μL 2-heptanone, per dish): 1/6 and 1/5 and 2/6 and 0/5
- # of Dead Mites/Total Mites ([3]; 1 μL 2-heptanone, per dish): 3/6 and 0/5 and 1/4 and 1/5
- % Mortality 25.5 hours ([3]; 1 μL 2-heptanone, per dish): 50% and 66%
- % Mortality 40.5 hours ([3]; 1 μL 2-heptanone, per dish): 50% and 66%
- % Mortality 40.5 hours ([3]; 5 μL 2-heptanone, per dish): 100% and 68%
- % Mortality 17.5 hours ([3]; 10 μL 2-heptanone, per dish): 66% and 40%
- % Mortality 25.5 hours ([3]; 10 μL 2-heptanone, per dish): 66% and 50%
- % Mortality 40.5 hours ([3]; 10 μL 2-heptanone, per dish): 66% and 60%
- action on the mites at higher concentrations ([3]; mites inanimate at 1 hour, active again as 2-heptanone evaporated): knockdown action
- minimum amount of 2-heptanone that will cause mite mortality ([3]; petri dish): 1 µL
